According to publication PMC11408619 (2024):

System: Bsu PreQ1 RNA (MFS construct) (RNA, riboswitch) UCGGCGAUCUACGCAGCGACAUAAUAAGAGGUUCUAGCUACACCCUCUAUAAAAAACUAAUAACAACCACUUCCUAAUCUGUCAUCUUCUG
Assay: magnetic force spectroscopy, fraction of high-force cycles
Details: 100 mM KCl, 1 mM MgCl2; 50 mM HEPES pH 7.4, 1% DMSO, 22 °C

KD/EC50: 58.8 ± 6.3 nM
SMILES: NCc1c[nH]c2nc(N)[nH]c(=O)c12
